Source: patent US20150183737A1, “COMPOSITIONS AND METHODS FOR SUBSTRATE-SELECTIVE INHIBITION OF ENDOCANNABINOID OXYGENATION” (Vanderbilt University, priority 2012, published 2015)
Entries after “also recorded” stand apart in the source; their conditions may differ.

Tests used:
[1] = target: T1, COX-2 in stimulated RAW 264.7 macrophages (Mus musculus, UniProt Q05769); assay: RAW 264.7 macrophage inhibition assay (Compound A); type: cell-based
T1 construct: endogenous in cells; host or cells: RAW 264.7 macrophages stimulated with LPS (and GM-CSF / interferon γ where described)
T1 sequence (Q05769 18-604): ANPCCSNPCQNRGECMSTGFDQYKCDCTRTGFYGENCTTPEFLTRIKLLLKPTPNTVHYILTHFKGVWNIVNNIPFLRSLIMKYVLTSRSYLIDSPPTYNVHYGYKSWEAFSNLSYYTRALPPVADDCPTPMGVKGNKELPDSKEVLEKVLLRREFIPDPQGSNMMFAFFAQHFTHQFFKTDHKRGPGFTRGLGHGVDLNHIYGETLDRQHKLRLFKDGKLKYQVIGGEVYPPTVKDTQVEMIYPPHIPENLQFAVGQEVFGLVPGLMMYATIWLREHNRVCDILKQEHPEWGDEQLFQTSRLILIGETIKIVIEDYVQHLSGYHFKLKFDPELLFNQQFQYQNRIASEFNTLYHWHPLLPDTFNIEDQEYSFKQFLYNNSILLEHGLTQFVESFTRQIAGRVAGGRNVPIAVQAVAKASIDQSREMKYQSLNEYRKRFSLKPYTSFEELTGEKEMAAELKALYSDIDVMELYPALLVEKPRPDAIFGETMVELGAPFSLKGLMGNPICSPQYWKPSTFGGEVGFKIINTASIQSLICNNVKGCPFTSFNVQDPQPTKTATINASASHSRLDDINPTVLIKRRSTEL

[2] = target: T2, human MGL-His (MAGL) (Homo sapiens, UniProt Q99685); assay: MAGL activity (Compound A); type: biochemical; settings: in vitro
T2 construct: His; made in house; host or cells: E. coli BL21(DE3) pLysS
T2 sequence (Q99685 1-303): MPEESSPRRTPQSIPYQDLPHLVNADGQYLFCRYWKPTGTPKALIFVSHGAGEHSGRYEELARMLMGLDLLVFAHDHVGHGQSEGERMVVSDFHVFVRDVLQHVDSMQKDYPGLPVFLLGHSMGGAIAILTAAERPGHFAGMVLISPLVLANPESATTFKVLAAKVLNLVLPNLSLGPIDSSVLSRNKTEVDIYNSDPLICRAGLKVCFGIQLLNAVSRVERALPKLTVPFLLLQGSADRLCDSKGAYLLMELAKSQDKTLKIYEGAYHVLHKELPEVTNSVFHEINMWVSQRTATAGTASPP

[3] = tested on: brain eCB, AA and PG levels; assay: Brain eCB, NAE, MAG, AA and PG levels after i.p. injection; type: in vivo, mice
[4] = lipopolysaccharide-activated RAW 264.7 macrophages
[5] = stimulated RAW 264.7 macrophages
[6] = 10 mg/kg i.p. (Compound A: any dose tested), 2 hours
[7] = 2 hours after i.p administration, dose not stated

COc1ccc2c(c1)c(CC(=O)N1CCOCC1)c(C)n2C(=O)c1ccc(Cl)cc1 [Compound A, 2-[1-(4-Chloro-benzoyl)-5-methoxy-2-methyl-1H-indol-3-yl]-1-morpholin-4-yl-ethanone]
Inhibition of AA oxygenation in cells [1, 4]: without inhibiting AA oxygenation | Inhibition of eCB oxygenation by COX-2 in cells [1, 4]: effective at inhibiting eCB oxygenation | 2-AG levels [1, 5]: increasing; also recorded: concentration-dependently increased | AA levels [1, 5]: without increasing AA levels | 2-AG levels ([1]; stimulated RAW 264.7 macrophages, 3 μM (p=0.007)): significantly increased | Inhibition of MAGL [2]: did not inhibit | Whole brain AEA levels ([3]; 3 mg/kg i.p., 2 hours, male ICR mice): significantly increased | Brain 2-AG levels in wild type littermates of COX-2 knockout mice ([3]; 10 mg/kg): significantly increased | Brain 2-AG levels, meta-analysis of 12 cohorts ([3]; 10 mg/kg): 109 % of vehicle | Brain AA or PG levels in WT or COX-2^(−/−) mice ([3]; 10 mg/kg): did not affect | Brain AEA levels in wild type littermates of COX-2 knockout mice ([3]; 10 mg/kg): significantly increased | Brain AEA, meta-analysis of 12 cohorts ([3]; 10 mg/kg): 139 % of vehicle | Brain levels of MAGs other than 2-AG ([3]; 10 mg/kg): did not affect | Brain AA levels [3, 6]: did not significantly affect | Brain PG levels [3, 6]: did not affect | Brain 2-AG levels ([3]; 10 mg/kg i.p. (highest dose), 2 hours, vs vehicle): non-significant trend to increase; also recorded: significantly increased | Brain levels of NAEs other than AEA ([3]; 10 mg/kg i.p., 2 hours): not any other NAE; also recorded: no other NAE | Brain AEA levels ([3]; 10 mg/kg i.p., 2 hours, vs vehicle): significantly increased | Brain 2-AG levels (Example 8) [3, 7]: without affecting | Brain AEA levels (Example 8) [3, 7]: increased | Brain 2-AG levels after JZL-184 treatment, compared to JZL-184 alone ([3]; combination treatment): additional significant increase | Brain AEA levels when combined with PF-3845, compared to PF-3845 alone ([3]; combination treatment): significant additional increase | Brain or lung PG levels (Example 8) ([3]; dose not stated): did not affect | Brain AEA and 2-AG levels in CB1^(−/−) mice ([3]; mouse, in vivo): significantly increased | Brain PG levels in CB1^(−/−) mice ([3]; mouse, in vivo): no effect; also recorded: without affecting | Ability to increase brain AEA levels in COX-2 knockout (KO) mice ([3]; present in wild type littermates): absent | Brain AEA levels in WT and FAAH KO mice ([3]; similar extent in both genotypes): increased
